# Assay results as given in US10919852B2, “Immunomodulator compounds” (CHEMOCENTRYX, INC., priority 2017, dated 2021).
# Molecular target: human PD-L1 / Human PD-1 (Homo sapiens (Human), UniProt Q9NZQ7)
# Experiment: Enzyme-Linked Immunosorbent Assay (ELISA), PD-1/PD-L1 binding
# Details: plate-coated human PD-L1, biotinylated human PD-1
# How it was run: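 Plates were coated with human PD-L1 at […]. Biotinylated human PD-1 (0.3 μg/mL) was added with 1:5 serially diluted compound for 1 h at 37 °C. Bound PD-1 was detected with streptavidin-HRP (1 h) and TMB (20 min), with absorbance read at 450 nm.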
# human PD-L1 / Human PD-1, sequence (Q9NZQ7 19-239): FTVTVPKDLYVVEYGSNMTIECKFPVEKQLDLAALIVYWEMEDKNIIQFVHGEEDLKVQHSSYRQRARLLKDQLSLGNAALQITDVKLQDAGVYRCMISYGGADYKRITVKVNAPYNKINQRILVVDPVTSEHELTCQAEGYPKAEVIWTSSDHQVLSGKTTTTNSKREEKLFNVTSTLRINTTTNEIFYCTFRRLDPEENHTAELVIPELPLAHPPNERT
row,IC50,Compound
1,< 5 nM,CC1(C)CC(O)CCN1CCCOc1cccc(-c2cccc3c2CC[C@@H]3Oc2cc(OCc3cncc(C#N)c3)c(CN[C@@H]3CCCC[C@@H]3O)cc2Cl)c1Cl (stereo partly shown)
2,5 to 500 nM,COc1cc(O[C@H]2CCc3c(-c4cccc(OCCCN5CCC(F)CC5)c4C)cccc32)c(Cl)cc1CN[C@H]1CCC(=O)NC1
3,5 to 500 nM,CCOc1cc(O[C@H]2CCc3c(-c4cccc(OCCCN5CCC[C@H]5C(C)C)c4C)cccc32)c(Cl)cc1CNC[C@@H]1CCC(=O)N1
4,< 5 nM,Cc1c(OCCCN2CCC(O)CC2(C)C)cccc1-c1cccc2c1CC[C@@H]2Oc1cc(OCc2cc(C#N)cc(C#N)c2)c(CN[C@H]2CCC(=O)NC2)cc1Cl (stereo partly shown)
5,5 to 500 nM,Cc1c(OCCCN2CCCCC2(C)C)cccc1-c1cccc2c1CC[C@@H]2Oc1cc(OCc2cc(C#N)cc(C#N)c2)c(CNC[C@H]2CCC(=O)N2)cc1Cl
6,< 5 nM,Cc1c(OCCCN2CCC(O)CC2)cccc1-c1cccc2c1CC[C@@H]2Oc1cc(OCc2cncc(C#N)c2)c(CN[C@H](C(=O)NS(C)(=O)=O)[C@@H](C)O)cc1Cl
7,5 to 500 nM,Cc1c(OCCCN2CCC(F)CC2)cccc1-c1cccc2c1CC[C@@H]2Oc1cc(OCc2cc(C#N)cc(C#N)c2)c(CN[C@@H]2CCC(=O)NC2=O)cc1Cl
8,< 5 nM,CCOc1cc(O[C@H]2CCc3c(-c4cccc(OCCCN5CCC(O)CC5)c4C)cccc32)c(Cl)cc1CN[C@@H](CO)C(=O)O
9,< 5 nM,Cc1c(OCCCN2CCC(O)CC2)cccc1-c1cccc2c1CC[C@@H]2Oc1cc(OCc2cncc(C#N)c2)c(CNCC(C)(C)O)cc1Cl
10,5 to 500 nM,CCOc1cc(O[C@H]2CCc3c(-c4cccc(OCCCN5CC(C)(C)C5)c4C)cccc32)c(Cl)cc1CNC[C@@H]1CCC(=O)N1
11,5 to 500 nM,Cc1c(OCCCN2CCC(C)(F)CC2)cccc1-c1cccc2c1CC[C@@H]2Oc1cc(OCc2cc(C#N)cc(C#N)c2)c(CN[C@H]2CCC[C@@H]2O)cc1Cl
12,< 5 nM,CCN1CCC(COc2cccc(-c3cccc4c3CC[C@@H]4Oc3cc(OCc4cncc(C#N)c4)c(CNC[C@@H]4CCC(=O)N4)cc3Cl)c2Cl)C1 (stereo partly shown)
13,< 5 nM,CN1CCC(COc2cccc(-c3cccc4c3CC[C@@H]4Oc3cc(OCc4cncc(C#N)c4)c(CNC[C@@H]4CCC(=O)N4)cc3Cl)c2Cl)C1 (stereo partly shown)
14,< 5 nM,N#Cc1cncc(COc2cc(O[C@H]3CCc4c(-c5cccc(OCCCN6CCC(F)CC6)c5Cl)cccc43)c(Cl)cc2CN2CC(C(=O)O)C2)c1
15,< 5 nM,N#Cc1cncc(COc2cc(O[C@H]3CCc4c(-c5cccc(OCCCN6CCNC(=O)C6)c5Cl)cccc43)c(Cl)cc2CNC2(C(=O)O)CCC2)c1
16,< 5 nM,Cc1c(OCCCN2CCC(O)CC2)cccc1-c1cccc2c1CC[C@@H]2Oc1cc(OCc2cncc(C#N)c2)c(CN(C)[C@H](C(=O)O)[C@@H](C)O)cc1Cl
17,< 5 nM,CC(CO)(NCc1cc(Cl)c(O[C@H]2CCc3c(-c4cccc(OCCCN5CCOCC5)c4Cl)cccc32)cc1OCc1cncc(C#N)c1)C(=O)O (stereo partly shown)
18,5 to 500 nM,COc1cc(O[C@H]2CCc3c(-c4cccc(OCCCN5CCC(F)CC5)c4Cl)cccc32)c(Cl)cc1CN[C@@H]1CCCC[C@@H]1O
19,< 5 nM,N#Cc1cncc(COc2cc(O[C@H]3CCc4c(-c5cccc(OCCCN6CCC(F)CC6)c5Cl)cccc43)c(Cl)cc2CN[C@@H]2CC[C@H]2O)c1

row,IC50,Compound
1,5 to 500 nM,CCOc1cc(O[C@@H]2c3cccc(-c4cccc(OCCCN5CCC(F)CC5)c4Cl)c3C[C@@H]2F)c(Cl)cc1CNC[C@H]1CCC(=O)N1
2,< 5 nM,Cc1c(OCCCN2CCC(O)CC2)cccc1-c1cccc2c1CCC2Oc1cc(OCc2cc(C#N)cc(C#N)c2)c(CN[C@@H](CO)C(=O)O)cc1Cl (stereo partly shown)
3,5 to 500 nM,Cc1c(OCCCN2CCC(O)CC2)cccc1-c1cccc2c1CC[C@@H]2Oc1cc(OCc2cncc(C#N)c2)c(CN[C@H](C(=O)OC(C)(C)C)[C@@H](C)O)cc1Cl
4,< 5 nM,C[C@@H](O)[C@H](NCc1cc(Cl)c(O[C@H]2CCc3c(-c4cccc(OCCCN5CCC(C)(F)CC5)c4Cl)cccc32)cc1OCc1cncc(C#N)c1)C(=O)NS(C)(=O)=O
5,< 5 nM,N#Cc1cncc(COc2cc(O[C@H]3CCc4c(-c5cccc(OCCCN6CCC(F)CC6)c5Cl)cccc43)c(Cl)cc2CN[C@H]2CC[C@@H]2O)c1
6,5 to 500 nM,N#Cc1cncc(COc2cc(O[C@H]3CCc4c(-c5cccc(OCCCN6CC(F)(F)C6)c5Cl)cccc43)c(Cl)cc2CNC[C@@H]2CCC(=O)N2)c1
7,< 5 nM,C[C@@](CO)(NCc1cc(Cl)c(O[C@H]2CCc3c(-c4cccc(OCCCN5CCC(O)CC5)c4Cl)cccc32)cc1OCc1cncc(C#N)c1)C(=O)O
8,< 5 nM,Cc1c(OCCCN2CCC(O)CC2)cccc1-c1cccc2c1CC[C@@H]2Oc1cc(OCc2cncc(C#N)c2)c(CN[C@@H](CO)C(N)=O)cc1Cl
9,< 5 nM,CC(CO)(NCc1cc(Cl)c(O[C@H]2CCc3c(-c4cccc(OCCCN5CC(F)C5)c4Cl)cccc32)cc1OCc1cncc(C#N)c1)C(=O)O (stereo partly shown)
10,5 to 500 nM,Cc1c(OCCCN2CCC(F)CC2)cccc1-c1cccc2c1CC[C@@H]2Oc1cc(OCc2cc(C#N)cc(C#N)c2)c(CN[C@H]2CCCNC2=O)cc1Cl
11,< 5 nM,N#Cc1cncc(COc2cc(O[C@H]3CCc4c(-c5cccc(OCCCN6CC(O)C6)c5Cl)cccc43)c(Cl)cc2CN2CCC(O)CC2)c1
12,5 to 500 nM,N#Cc1cc(C#N)cc(COc2cc(O[C@H]3CCc4c(-c5cccc(OCCCN6CCC(F)CC6)c5Cl)cccc43)c(Cl)cc2CN[C@H]2CCC(=O)NC2)c1
13,< 5 nM,CC1(F)CCN(CCCOc2cccc(-c3cccc4c3CC[C@@H]4Oc3cc(OCc4cncc(C#N)c4)c(CNC[C@@H]4CCC(=O)N4)cc3Cl)c2Cl)CC1
14,< 5 nM,CC(CO)(NCc1cc(Cl)c(O[C@H]2CCc3c(-c4cccc(OCCCN5CC(O)C5)c4Cl)cccc32)cc1OCc1cncc(Cl)c1)C(=O)O (stereo partly shown)
15,5 to 500 nM,CCOc1cc(O[C@@H]2c3cccc(-c4cccc(OCCCN5CCC(C)(F)CC5)c4C)c3C[C@@H]2F)c(Cl)cc1CN[C@H](C(=O)NS(C)(=O)=O)[C@@H](C)O
16,< 5 nM,N#Cc1cncc(COc2cc(O[C@H]3CCc4c(-c5cccc(OCCCN6CC(O)C6)c5Cl)cccc43)c(Cl)cc2CN[C@@H]2CCCC[C@@H]2O)c1
17,< 5 nM,CC1(O)CCN(Cc2cc(Cl)c(O[C@H]3CCc4c(-c5cccc(OCCCN6CCC(F)CC6)c5Cl)cccc43)cc2OCc2cncc(C#N)c2)CC1
18,< 5 nM,N#Cc1cncc(COc2cc(O[C@H]3CCc4c(-c5cccc(OCCCN6CCC(O)CC6)c5Cl)cccc43)c(Cl)cc2CNC(CO)CO)c1
19,< 5 nM,N#Cc1cncc(COc2cc(O[C@H]3CCc4c(-c5cccc(OCCCN6CC7(CC(O)C7)C6)c5Cl)cccc43)c(Cl)cc2CN[C@@H]2CCC[C@@H]2O)c1

row,IC50,Compound
1,< 5 nM,N#Cc1cncc(COc2cc(O[C@H]3CCc4c(-c5cccc(OCCCN6CCC(O)CC6)c5Cl)cccc43)c(Cl)cc2CN[C@@H]2CCCC[C@@H]2O)c1
2,< 5 nM,CC(C)(O)CNCc1cc(Cl)c(O[C@H]2CCc3c(-c4cccc(OCCCN5CC(O)C5)c4Cl)cccc32)cc1OCc1cncc(C#N)c1
3,5 to 500 nM,CCOc1cc(O[C@H]2CCc3c(-c4cccc(OCCCN5[C@H](C)CC[C@H]5C)c4C)cccc32)c(Cl)cc1CN1CCC(C(=O)O)CC1
4,< 5 nM,Cc1c(OCCCN2CCCC[C@H]2C)cccc1-c1cccc2c1CC[C@@H]2Oc1cc(OCc2cc(C#N)cc(C#N)c2)c(CNC[C@H]2CCC(=O)N2)cc1Cl
5,< 5 nM,N#Cc1cncc(COc2cc(O[C@H]3CCc4c(-c5cccc(OCCCN6CC7(CC(O)C7)C6)c5Cl)cccc43)c(Cl)cc2CN[C@@H]2CCC[C@H]2O)c1
6,< 5 nM,Cc1c(OCCCN2CC3(CC(O)C3)C2)cccc1-c1cccc2c1CC[C@@H]2Oc1cc(OCc2cncc(C#N)c2)c(CN[C@H](C(=O)O)[C@@H](C)O)cc1Cl
7,5 to 500 nM,Cc1c(OCCCN2CCC(C)(F)CC2)cccc1-c1cccc2c1CC[C@@H]2Oc1cc(OCc2cc(C#N)cc(C#N)c2)c(CN[C@@H]2CCC(=O)NC2)cc1Cl
8,< 5 nM,CN1CCC(COc2cccc(-c3cccc4c3CC[C@@H]4Oc3cc(OCc4cncc(C#N)c4)c(CN[C@@H]4CCCC[C@@H]4O)cc3Cl)c2Cl)C1 (stereo partly shown)
9,< 5 nM,CCOc1cc(O[C@H]2CCc3c(-c4cccc(OCCCN5CC(O)C5)c4C)cccc32)c(Cl)cc1CN[C@@H](CO)C(=O)O
10,5 to 500 nM,CCOc1cc(O[C@H]2CCc3c(-c4cccc(OCCCN5CCC5(C)C)c4C)cccc32)c(Cl)cc1CNCCB(O)O
11,< 5 nM,Cc1c(OCCCN2CCC(O)CC2)cccc1-c1cccc2c1CC[C@@H]2Oc1cc(OCc2cncc(C#N)c2)c(CN[C@@H]2CCC[C@H]2O)cc1Cl
12,5 to 500 nM,Cc1c(OCCCN2CCC(O)CC2)cccc1-c1cccc2c1CC[C@@H]2Oc1cc(OCc2cncc(C#N)c2)c(CNC(C)(CO)CO)cc1Cl
13,< 5 nM,N#Cc1cncc(COc2cc(O[C@H]3CCc4c(-c5cccc(OCCCN6CC(O)C6)c5Cl)cccc43)c(Cl)cc2CN2CC(O)C2)c1
14,< 5 nM,COC(=O)C1(O)CCN(CCCOc2cccc(-c3cccc4c3CC[C@@H]4Oc3cc(OCc4cncc(C#N)c4)c(CN[C@H](C(=O)O)[C@@H](C)O)cc3Cl)c2C)C1 (stereo partly shown)
15,5 to 500 nM,Cc1c(OCCCN2CCC(F)CC2)cccc1-c1cccc2c1CC[C@@H]2Oc1cc(OCc2cc(C#N)cc(C#N)c2)c(CN[C@@H]2CCCNC2=O)cc1Cl
16,5 to 500 nM,N#Cc1cncc(COc2cc(O[C@H]3CCc4c(-c5cccc(OCCCN6CC(O)C6)c5Cl)cccc43)c(Cl)cc2CN2CCC3(C2)NC(=O)NC3=O)c1 (stereo partly shown)
17,5 to 500 nM,Cc1c(OCCCN2CCC(C)(F)CC2)cccc1-c1cccc2c1C[C@H](F)[C@@H]2Oc1cc(OCc2cc(C#N)cc(C#N)c2)c(CN[C@H]2CCC(=O)NC2)cc1Cl
18,5 to 500 nM,Cc1c(OCCCN2CCC(C)(F)CC2)cccc1-c1cccc2c1CC[C@@H]2Oc1cc(OCc2cc(C#N)cc(C#N)c2)c(CN[C@H]2CCC(=O)NC2)cc1Cl
19,< 5 nM,CCOc1cc(O[C@H]2CCc3c(-c4cccc(OCCCN5CC[C@@H](O)C5)c4C)cccc32)c(Cl)cc1CNC(C)(CO)C(=O)O (stereo partly shown)

row,Compound,IC50
1,Cc1c(OCCCN2C3CCC2CC(O)C3)cccc1-c1cccc2c1CC[C@@H]2Oc1cc(OCc2cncc(C#N)c2)c(CNCC2CCC(=O)N2)cc1Cl (stereo partly shown),< 5 nM
